Experimental data published in patent publication US12655116B2, “Substituted isophthalic acid diamides” (Bayer Aktiengesellschaft, priority 2020, dated 2026).

What was measured:
SETVI [1] = assay: Post-emergence herbicidal action against SETVI; format: in vivo, Setaria viridis
Summary of the method: (§1)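 Herbicidal action is a visual percentage rating (0% = as untreated control, 100% = plants dead) made roughly 3 weeks after treatment. Plants were grown in sandy loam in the greenhouse and treated at the one-leaf stage, 2 to 3 weeks post-sowing. Treatment was a foliar spray of wettable-powder or emulsion-concentrate formulations at 600 to 800 l/ha water plus 0.2% wetting agent.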

MATIN [2] = assay: Post-emergence herbicidal action against MATIN; format: in vivo, Matricaria inodora; settings: Tripleurospermum inodorum, 504 h
Summary of the method: as §1

ECHCG [3] = assay: Post-emergence herbicidal action against ECHCG; format: in vivo, Echinochloa crus-galli
Summary of the method: as §1

AVEFA = assay: Pre-emergence herbicidal action against AVEFA; format: in vivo, Avena fatua; settings: Avena fatua, 504 h; 80 g/ha, pre-emergence
Summary of the method: (§2)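 Sandy loam pots, seeds covered with soil, then surface-treated with WP or EC formulations at 600–800 l/ha water plus 0.2% wetting agent. Greenhouse, 3 weeks. Percent damage vs untreated controls.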

DIGSA [4] = assay: Post-emergence herbicidal action against DIGSA; format: in vivo, Digitaria sanguinalis
Summary of the method: as §1

ECHCG [5] = assay: Pre-emergence herbicidal action against ECHCG; format: in vivo, Echinochloa crus-galli
Summary of the method: as §2

ABUTH [6] = assay: Pre-emergence herbicidal action against ABUTH; format: in vivo, Abutilon theophrasti
Summary of the method: as §2

ABUTH [7] = assay: Post-emergence herbicidal action against ABUTH; format: in vivo, Abutilon theophrasti; settings: visual assessment about 3 weeks after treatment vs untreated controls
Summary of the method: as §1

AMARE [8] = assay: Post-emergence herbicidal action against AMARE; format: in vivo, Amaranthus retroflexus; settings: 20 g/ha, visual assessment about 3 weeks after treatment, 100% = plants have died, 0% = like control plants
Summary of the method: as §1

ALOMY [9] = assay: Pre-emergence herbicidal action against ALOMY; format: in vivo, Alopecurus myosuroides; settings: 80 g/ha, pre-emergence, scored visually after 3 weeks vs untreated controls (100% = plants have died, 0% = like control plants)
Summary of the method: as §2

PHBPU [10] = assay: Post-emergence herbicidal action against PHBPU; format: in vivo, Pharbitis purpurea; settings: dosage 20 g/ha
Summary of the method: as §1

ALOMY [11] = assay: Post-emergence herbicidal action against ALOMY; format: in vivo, Alopecurus myosuroides; settings: dosage 20 g/ha, visual assessment about 3 weeks after treatment vs untreated controls
Summary of the method: as §1

VERPE [12] = assay: Pre-emergence herbicidal action against VERPE; format: in vivo, Veronica persica; settings: Veronica persica, 504 h, dosage 80 g/ha
Summary of the method: as §2

VIOTR [13] = assay: Pre-emergence herbicidal action against VIOTR; format: in vivo, Viola tricolor
Summary of the method: as §2

VERPE [14] = assay: Post-emergence herbicidal action against VERPE; format: in vivo, Veronica persica
Summary of the method: as §1

SETVI [15] = assay: Pre-emergence herbicidal action against SETVI; format: in vivo, Setaria viridis
Summary of the method: as §2

DIGSA [16] = assay: Pre-emergence herbicidal action against DIGSA; format: in vivo, Digitaria sanguinalis
Summary of the method: as §2

MATIN [17] = assay: Pre-emergence herbicidal action against MATIN; format: in vivo, Matricaria inodora
Summary of the method: as §2

PHBPU [18] = assay: Pre-emergence herbicidal action against PHBPU; format: in vivo, Pharbitis purpurea
Summary of the method: as §2

AMARE [19] = assay: Pre-emergence herbicidal action against AMARE; format: in vivo, Amaranthus retroflexus
Summary of the method: as §2

VIOTR [20] = assay: Post-emergence herbicidal action against VIOTR; format: in vivo, Viola tricolor; settings: Viola tricolor, 504 h
Summary of the method: as §1

[21] = Setaria viridis, 504 h, dosage 20 g/ha
[22] = 80 g/ha, scored visually after 3 weeks vs untreated controls (100% = plants have died, 0% = like control plants)

CCNC(=O)c1c(C(F)(F)F)ccc(C(=O)Nc2nnnn2C)c1OC [Example 1-57]
90%: pest or weed control at 20 g/ha (MATIN [2]; dosage 20 g/ha) | pest or weed control at 80 g/ha (AVEFA) | pest or weed control at 20 g/ha (ECHCG [5]; Echinochloa crus-galli, 504 h, 20 g/ha) | pest or weed control at 80 g/ha (ECHCG [5]; Echinochloa crus-galli, 504 h, 80 g/ha) | pest or weed control at 5 g/ha (ABUTH [7]; Abutilon theophrasti, 504 h, dosage 5 g/ha) | pest or weed control at 20 g/ha (ABUTH [7]; Abutilon theophrasti, 504 h, dosage 20 g/ha) | pest or weed control at 20 g/ha (PHBPU [10]; Ipomoea purpurea, 504 h) | pest or weed control at 20 g/ha (VERPE [14]; Veronica persica, 504 h, 20 g/ha) | pest or weed control at 20 g/ha (SETVI [15]; [21]) | pest or weed control at 20 g/ha (MATIN [17]; Tripleurospermum inodorum, 504 h, dosage 20 g/ha)
80%: pest or weed control at 5 g/ha (MATIN [2]; dosage 5 g/ha) | pest or weed control at 5 g/ha (ECHCG [3]; Echinochloa crus-galli, 504 h, dosage 5 g/ha) | pest or weed control at 80 g/ha (ALOMY [9]; Alopecurus myosuroides, 504 h) | pest or weed control at 20 g/ha (ALOMY [11]; Alopecurus myosuroides, 504 h) | pest or weed control at 80 g/ha (VERPE [12]) | pest or weed control at 5 g/ha (VERPE [14]; Veronica persica, 504 h, 5 g/ha) | pest or weed control at 20 g/ha (PHBPU [18]; Ipomoea purpurea, 504 h, dosage 20 g/ha) | pest or weed control at 80 g/ha (PHBPU [18]; Ipomoea purpurea, 504 h, dosage 80 g/ha)
100%: pest or weed control at 5 g/ha (SETVI [1]; Setaria viridis, 504 h, dosage 5 g/ha) | pest or weed control at 20 g/ha (SETVI [1]; [21]) | pest or weed control at 20 g/ha (ECHCG [3]; Echinochloa crus-galli, 504 h, dosage 20 g/ha) | pest or weed control at 5 g/ha (DIGSA [4]; Digitaria sanguinalis, 504 h, 5 g/ha) | pest or weed control at 20 g/ha (DIGSA [4]; Digitaria sanguinalis, 504 h, 20 g/ha) | pest or weed control at 80 g/ha (ABUTH [6]; Abutilon theophrasti, 504 h, 80 g/ha, scored visually after 3 weeks vs untreated controls (100% = plants have died, 0% = like control plants)) | pest or weed control at 20 g/ha (ABUTH [6]; Abutilon theophrasti, 504 h, dosage 20 g/ha, scored visually after 3 weeks vs untreated controls, 100% = plants have died, 0% = like control plants, read-out: Pre-emergence action against ABUTH (herbicidal activity in percent)) | pest or weed control at 20 g/ha (AMARE [8]; Amaranthus retroflexus, 504 h) | pest or weed control at 20 g/ha (VIOTR [13]; Viola tricolor, 504 h, dosage 20 g/ha) | pest or weed control at 80 g/ha (VIOTR [13]; Viola tricolor, 504 h, dosage 80 g/ha) | pest or weed control at 80 g/ha (SETVI [15]; Setaria viridis, 504 h, dosage 80 g/ha) | pest or weed control at 20 g/ha (DIGSA [16]; Digitaria sanguinalis, 504 h, dosage 20 g/ha) | pest or weed control at 80 g/ha (DIGSA [16]; Digitaria sanguinalis, 504 h, dosage 80 g/ha) | pest or weed control at 80 g/ha (MATIN [17]; Tripleurospermum inodorum, 504 h, dosage 80 g/ha) | pest or weed control at 20 g/ha (AMARE [19]; Amaranthus retroflexus, 504 h, 20 g/ha, scored visually after 3 weeks vs untreated controls, 100% = plants have died, 0% = like control plants) | pest or weed control at 80 g/ha (AMARE [19]; Amaranthus retroflexus, 504 h, 80 g/ha, scored visually after 3 weeks vs untreated controls, 100% = plants have died, 0% = like control plants) | pest or weed control at 5 g/ha (VIOTR [20]; 5 g/ha) | pest or weed control at 20 g/ha (VIOTR [20]; 20 g/ha)

COCCNC(=O)c1c(C(F)F)ccc(C(=O)Nc2nnnn2C)c1Cl [Example 1-156]
90%: Post-emergence action against ECHCG in % (ECHCG [3]; dosage 20 g/ha) | Post-emergence action against DIGSA (DIGSA [4]; 20 g/ha) | Post-emergence action against ABUTH in % (ABUTH [7]; dosage 5 g/ha) | Post-emergence action against ABUTH in % (ABUTH [7]; dosage 20 g/ha) | Post-emergence action at 20 g/ha against AMARE in % (AMARE [8]) | Pre-emergence action against ALOMY (herbicidal activity) (ALOMY [9]) | Post-emergence action against PHBPU in % (PHBPU [10]) | Pre-emergence action against MATIN in % (MATIN [17]; dosage 20 g/ha)
80%: Post-emergence action against SETVI in % (SETVI [1]; dosage 20 g/ha) | Post-emergence action against ECHCG in % (ECHCG [3]; dosage 5 g/ha) | Post-emergence action against ALOMY in % (ALOMY [11]) | Post-emergence action against VERPE in % (VERPE [14]; 20 g/ha) | Pre-emergence action against PHBPU in % (PHBPU [18]; dosage 80 g/ha)
100%: Pre-emergence action against ECHCG in % (ECHCG [5]; 80 g/ha) | Pre-emergence action against ABUTH (herbicidal activity) (ABUTH [6]; [22]) | Pre-emergence action against VIOTR in % (VIOTR [13]; dosage 80 g/ha) | Pre-emergence action against SETVI in % (SETVI [15]; dosage 80 g/ha) | Pre-emergence action against DIGSA in % (DIGSA [16]; dosage 20 g/ha) | Pre-emergence action against DIGSA in % (DIGSA [16]; dosage 80 g/ha) | Pre-emergence action against MATIN in % (MATIN [17]; dosage 80 g/ha) | Pre-emergence action against AMARE in % (AMARE [19]; 20 g/ha, scored visually after 3 weeks vs untreated controls, 100% = plants have died, 0% = like control plants) | Pre-emergence action against AMARE in % (AMARE [19]; [22])
